In US20250066346A1, “SOLID FORMS OF A BENZTHIAZOLE-PIPERAZINYL-OXAZOLE COMPOUND AND METHODS OF USE THEREOF” (Hepagene Therapeutics (HK) Limited, priority 2022, published 2025):
Structures can show the parent of a compound that is named as a salt. Each block holds one compound with its values, some of them ahead of it.

What was measured:
Type in all cases: physicochemical
[1] = Kinetic solubility in water and bio-relevant media (SGF, FaSSIF, FeSSIF) at 37° C.; set-up: key to FC: form change: Yes: form changed; No: form not changed; conditions: for pH: filtered supernatant
Procedure: Agilent 1260 HPLC was utilized and detailed chromatographic conditions are provided in Tables 3 and 4 for purity and solubility test, respectively.
About 20 mg of free base (form A) HCl salt (form B), and HBr salt (form D) were added to a 5-mL glass vials followed by the addition of 4 mL of the corresponding medium/solvent into each glass vial to form a suspension. The vials were capped and rolled at 37° C. (25 rpm). Samples were removed (1 mL) at 1 h, 4 h, and 24 h and centrifuged (14000 rpm, 2 min, room temperature). The supernatant was filtered through 0.22 μm syringe filter (first few drops of filtrate were discarded) for HPLC solubility and pH tests (Table 15). The residual solids were analyzed by XRPD.

[2] = Hygroscopicity by dynamic vapor sorption (DVS) at 25° C.; conditions: in the range of 0% RH to 30% RH, platform between 30% RH and 95% RH
Procedure: DVS was measured via a SMS (Surface Measurement Systems) DVS Intrinsic. The relative humidity at 25° C. was calibrated against deliquescence point of LiCl, Mg(NO3)2 and KCl.

[3] = Solid state stability (XRPD for physical stability, HPLC purity for chemical stability); conditions: for Purity/initial purity: HPLC; for Form change: XRPD
Source text: All the samples were characterized by XRPD for physical stability and HPLC purity for chemical stability evaluation (Table 16).

[4] = Form conversion by variable-temperature XRPD (VT-XRPD)
Procedure: […] 22.
Based on data above, it would convert to dehydrate state (HCl salt Form C) at low humidity and back to hydrate at high humidity.
HBr salt Form E was observed after N2 purging HBr salt Form D for 20 min at 30° C. via variable-temperature XRPD (VT-XRPD) shown in FIG. 23.
Based on data above, it would convert to dehydrate state (HBr salt Form E) at low humidity and back to hydrate at high humidity.

solubility in FaSSIF and FeSSIF (in words) ([1]; FaSSIF and FeSSIF): significant solubility improvement
FC: form change ([1]; FaSSIF, 1 hr): No
S: solubility ([1]; FaSSIF, 1 hr): 290 µg/mL
pH ([1]; FaSSIF, 1 hr): 6.5
FC: form change ([1]; FaSSIF, 4 hrs): No
S: solubility ([1]; FaSSIF, 4 hrs): 420 µg/mL
pH ([1]; FaSSIF, 4 hrs): 6.5
FC: form change ([1]; FaSSIF, 24 hrs): No
S: solubility ([1]; FaSSIF, 24 hrs): 570 µg/mL
pH ([1]; FaSSIF, 24 hrs): 6.4
FC: form change ([1]; FeSSIF, 1 hr): No
S: solubility ([1]; FeSSIF, 1 hr): 480 µg/mL
pH ([1]; FeSSIF, 1 hr): 5.1
FC: form change ([1]; FeSSIF, 4 hrs): No
S: solubility ([1]; FeSSIF, 4 hrs): 480 µg/mL
pH ([1]; FeSSIF, 4 hrs): 5.0
FC: form change ([1]; FeSSIF, 24 hrs): No
S: solubility ([1]; FeSSIF, 24 hrs): 500 µg/mL
pH ([1]; FeSSIF, 24 hrs): 5.0
FC: form change ([1]; H2O, 1 hr): No
S: solubility ([1]; H2O, 1 hr): 4.9 µg/mL
pH ([1]; H2O, 1 hr): 6.1
FC: form change ([1]; H2O, 4 hrs): No
S: solubility ([1]; H2O, 4 hrs): 5.6 µg/mL
pH ([1]; H2O, 4 hrs): 5.9
FC: form change ([1]; H2O, 24 hrs): No
S: solubility ([1]; H2O, 24 hrs): 6.1 µg/mL
pH ([1]; H2O, 24 hrs): 6.4
FC: form change ([1]; SGF, 1 hr): No
S: solubility ([1]; SGF, 1 hr): 61 µg/mL
pH ([1]; SGF, 1 hr): 1.8
FC: form change ([1]; SGF, 4 hrs): No
S: solubility ([1]; SGF, 4 hrs): 48 µg/mL
pH ([1]; SGF, 4 hrs): 1.9
FC: form change ([1]; SGF, 24 hrs): Yes
S: solubility ([1]; SGF, 24 hrs): 39 µg/mL
pH ([1]; SGF, 24 hrs): 1.8
water uptake [2]: 2.5%
Purity/initial purity ([3]; 25° C./60% RH/1 week): 100.0%
Form change ([3]; 25° C./60% RH/1 week): No
Purity/initial purity ([3]; 40° C./75% RH/1 week): 100.0%
Form change ([3]; 40° C./75% RH/1 week): No
solid state stability (overall, in words) ([3]; 80° C./1 day, 25° C./60% RH/1 week, 40° C./75% RH/1 week): good solid state stability
Purity/initial purity ([3]; 80° C./1 day): 100.0%
Form change ([3]; 80° C./1 day): No
Compound: COc1cc(C(=O)O)cc2sc(N3CCN(Cc4c(-c5c(Cl)cccc5Cl)noc4C4CC4)C[C@H]3C)nc12 [HCl salt Form B, (R)-2-(4-((5-cyclopropyl-3-(2,6-dichlorophenyl)isoxazol-4-yl)methyl)-2-methylpiperazin-1-yl)-4-methoxybenzo[d]thiazole-6-carboxylic acid]

form after exposing to ambient conditions ([4]; ambient conditions for about 10 min): HCl salt Form B was re-obtained
form change after heating to 120° C. and cooling to 30° C. ([4]; with N2 protection, VT-XRPD): no form change occurred
Compound: COc1cc(C(=O)O)cc2sc(N3CCN(Cc4c(-c5c(Cl)cccc5Cl)noc4C4CC4)C[C@H]3C)nc12 [Form C, (R)-2-(4-((5-cyclopropyl-3-(2,6-dichlorophenyl)isoxazol-4-yl)methyl)-2-methylpiperazin-1-yl)-4-methoxybenzo[d]thiazole-6-carboxylic acid]
